The test system of test [1] is dGsw^121,caged (RNA, riboswitch, (S)-NPE photocage at C4 position of nucleobases of U108, U110 and U112) AAUGAAUAUAAAAGAAACUUAUACAGGGUAGCAUAAUGGGCUACUGACCCCGCCUUCAAACCUAUUUGGAGACUAUAAGUGAAAAACCACUCUUUAAUUAUUAAAGUUUCUUUUUAUGUC
The test can be described thus: NMR (1H,15N-TROSY, imino protons). Conditions: 50 mM KCl, 25 mM K phosphate, 6 eq. Mg2+; pH 6.2, 298 K; 100 µM RNA, 2 eq. ligand; before photolysis.

The test system of test [2] is dGsw^121 (RNA, riboswitch) AAUGAAUAUAAAAGAAACUUAUACAGGGUAGCAUAAUGGGCUACUGACCCCGCCUUCAAACCUAUUUGGAGACUAUAAGUGAAAAACCACUCUUUAAUUAUUAAAGUUUCUUUUUAUGUC
Nature of the test: NMR (1H,15N-TROSY, imino protons). Conditions: 50 mM KCl, 25 mM K phosphate, 6 eq. Mg2+; pH 6.2, 298 K; 100 µM RNA, 2 eq. ligand; after photolysis; antiterminator folds only to ~80%.

With `Nc1nc2c(ncn2[C@H]2C[C@H](O)[C@@H](CO)O2)c(=O)[nH]1`, the binding result in test [1] and in test [2] was “yes” throughout.

The record behind these values is paper PMC5838219 (2018).
